Results reported in patent publication US20250179531A1, “COMPOSITIONS AND METHODS FOR HOMOLOGY-DIRECTED REPAIR GENE MODIFICATION” (VOR BIOPHARMA INC., priority 2022, published 2025).

Tests used:
Type in all cases: cell-based, human
GBA gene = assay: Editing of the GBA gene in CD34+ cells, ICE analysis of sequencing data
Description: CD34+ cells were electroporated with RNP comprising the designed sgRNAs and with the designed ssODNs. Cells were screened by ICE analysis of sequencing data.
To optimize HDR-mediated editing of the GBA gene loci associated with Gaucher disease, ssODN candidates were screened for their ability to promote high editing efficiencies. Four ssODNs (ssODN1-4) comprising a sequence with a modification to generate the N409S mutation in exon 9 of the GBA gene and two ssODNs (ssODN5 and ssODN6) comprising a sequence with a modification to generate the L483P mutation in exon 10 of the GBA gene were screened. CD34+ cells were electroporated with different combinations of RNPs and ssODNs that corresponded to their respective target sequences, as described above, grown for 2-3 days, and then analyzed for cell viability and by sequencing (FIG. 10A).

CCR5 gene = assay: ICE analysis of sequencing data, Pvu1 site insertion into CCR5 in CD34+ cells; conditions: for HDR-mediated editing efficiency (promoting HDR): CD34+ cells in SCGM with hSCF, FLT3-L, TPO, added to RNP and ssODN, FIG. 4A; for efficiency of HDR in CD34+ cells: SR1 and UM171, in the presence or in the absence of IL-6
Procedure: The presence of the Pvu1 restriction site in the CCR5 locus was also detected by sequencing. Sequencing data was analyzed via inference of CRISPR/Cas9 (ICE) software to quantify the percent of insertion of the 6 nucleotide Pvu1 site.
To determine conditions that would enhance HDR-mediated editing efficiency, the role of media conditions was assessed. CD34+ cells were cultured in stromal cell growth media (SCGM) supplemented with human stem cell factor (hSCF), Fms-like tyrosine kinase 3 Ligand (FLT3-L), and thrombopoietin (TPO) to promote cell differentiation and proliferation. Using ICE analysis of sequencing data to detect Pvu1 restriction site insertion into the CCR5 gene of CD34+ cells, cells were electroporated with DNA repair modulators to skew repair pathway utilization toward HDR following Cas9 cleavage in combination with cell expansion compounds Interleukin-6 (IL6), StemRegenin 1 (SR1), and UM171 in addition to RNP and ssODN. DNA repair modulators investigated included SCR7 (a ligase IV inhibitor), NU7441 (a DNA-PK inhibitor), Rucaparib (a PARP inhibitor), and RS-1 (an HDR enhancer).

RAB11a locus = assay: Flow cytometry of EGFP reporter from capped dsODN integrated at RAB11a in T cells; conditions: 3 μg Cas9, 3 μg RAB11a sgRNA, 1 μg capped dsODN; NU7441 1 μM, SCR7 5 μM, and/or SR1 5 μM in media 24 hours post-electroporation
Description: Two respective capped, dsODNs were designed comprising an EGFP reporter and homology arms to direct integration at either the AAVS1 or RAB11a loci in T cells (FIG. 16A-16B). T cells were electroporated with dsODN and Cas9 RNP as described herein. Flow cytometry analyses were used to confirm EGFP expression in electroporated T cells. Approximately 20% of cells electroporated with capped, AAVS1 dsODN and 38% of cells electroporated with capped, RAB11a dsODN were GFP positive (FIG. 17A).

T cells = assay: T cell viability after electroporation and addition of NHEJ modulators; conditions: NU7441 1 μM, SCR7 5 μM, and/or SR1 5 μM in media 24 hours post-electroporation

“SG6: Cas9 sgRNA to human GBA, position 1448; targeting domain UGCCAGUCAGAAGAACGACC (SEQ ID NO: 18) (as printed in the source, key not given here)” was tested, and the “editing efficiency of exon 10 of the GBA gene” value (GBA gene) was “high editing efficiency”.
With `CC(C)n1cnc2c(NCCc3ccc(O)cc3)nc(-c3csc4ccccc34)nc21` [SR1, StemRegenin 1] the “HDR-mediated editing efficiency (promoting HDR)” value (“HDR-mediated editing efficiency” below) (CCR5 gene) was “improved”, the “efficiency of HDR in CD34+ cells” value (CCR5 gene) was “significantly increase” and the “increase in GFP expression” value (RAB11a locus) was “approximately 10%”. For the same molecule, the T cell viability (T cells) was “reduced”.
For Interleukin-6 [IL6], the “HDR-mediated editing efficiency” value (CCR5 gene) was “improved”, the overall editing efficiency (CCR5 gene; presence or absence of IL6 in CD34+ cell media, FIG. 4B) was “did not significantly affect” and the HDR (CCR5 gene; presence or absence of IL6 in CD34+ cell media, FIG. 4C) was “did not significantly affect”.
In the case of “SG7: Cas9 sgRNA to human GBA, position 1448; targeting domain GCAUCAGUGCCACUGCGUCC (SEQ ID NO: 21) (as printed in the source, key not given here)”, the “editing efficiency of exon 10 of the GBA gene” value (GBA gene) is reported as “high editing efficiency”.
In the case of `O=c1cc(N2CCOCC2)oc2c(-c3cccc4c3sc3ccccc34)cccc12` [NU7441], the “HDR-mediated editing efficiency” value (CCR5 gene) is reported as “no significant advantage”, the “increase in GFP expression” value (RAB11a locus) is reported as “approximately 10%” and the T cell viability (T cells) is reported as “reduced”.
For “SG2: Cas9 sgRNA to human GBA, position 1226; targeting domain CACAUGGUACAGGAGGUUCU (SEQ ID NO: 6) (as printed in the source, key not given here)”, the “editing efficiency of exon 9 of the GBA gene” value (GBA gene) was “high editing efficiency”.
With `CNCc1ccc(-c2[nH]c3cc(F)cc4c3c2CCNC4=O)cc1` [Rucaparib] the “HDR-mediated editing efficiency” value (CCR5 gene) was “no significant advantage”.
With `O=C(Nc1ccc(Br)cc1)c1ccc(Br)c(S(=O)(=O)NCc2ccccc2)c1` [RS-1] the “HDR-mediated editing efficiency” value (CCR5 gene) was “no significant advantage”.
With `O=c1[nH]c(=S)[nH]c(N=Cc2ccccc2)c1N=Cc1ccccc1` [SCR7] the “HDR-mediated editing efficiency” value (CCR5 gene) was “no significant advantage” and the “increase in GFP expression” value (RAB11a locus) was “approximately 10%”.
In the case of “SG4: Cas9 sgRNA to human GBA, position 1226; targeting domain CUAGAACCUCCUGUACCAUG (SEQ ID NO: 12) (as printed in the source, key not given here)”, the “editing efficiency of exon 9 of the GBA gene” value (GBA gene) is reported as “high editing efficiency”.
With `Cn1nnc(-c2ccc3c(c2)[nH]c2nc(Cc4ccccc4)nc(NC4CCC(N)CC4)c23)n1` (stereo not drawn) [UM171] the “HDR-mediated editing efficiency” value (CCR5 gene) was “improved” and the “efficiency of HDR in CD34+ cells” value (CCR5 gene) was “significantly increase”.
With “SG1: Cas9 sgRNA to human GBA, position 1226; targeting domain ACAUGGUACAGGAGGUUCUA (SEQ ID NO: 3) (as printed in the source, key not given here)” the “editing efficiency of exon 9 of the GBA gene” value (GBA gene) was “high editing efficiency”.
